In patent US20060241166A1, “Sapphyrins and uses thereof” (Pharmacyclica, Inc., priority 2003, published 2006):
Several values for one entry are separate records, joined by “and”; a condition that tells them apart may be missing. Equal values may be shown once.

Columns and labels:
[1] = system: cells; assay: Annexin binding apoptosis assay, cells treated with sapphyrins for 24 hrs; type: cell-based; set-up: key: Back = background; Sat = saturated assay conditions: killing greater 95%
Procedure: (§1) All cell lines were grown in RPMI 1640 with 10% fetal bovine serum. Cells were treated at a density of 100,000 cells/ml with sapphyrins for 24 hrs and then assessed for apoptosis. Some cells were cultured for up to 96 hrs and then assessed for growth inhibition by counting cells using a coulter counter. For the xenograft model, 10 million Ramos cells were injected subcutaneously into the right hind flank of CD-1 nude mice that had been irradiated with 3 Gy 24 hrs prior to tumor implantation. Seven days later, the mice were treated with sapphyrin given intravenously in the tail vein q day×2 doses. Some animals were sacrificed the next day for analysis of drug uptake in tumor and spleen, tumor cell killing and tumor cell culture.
Annexin binding and propidium iodide exclusion were assayed using reagents from Biosource (Camarillo, Calif.) per manufacturer's protocol.

[2] = system: cells; assay: Growth inhibition by cell counting 96 hrs post treatment; type: cell-based; conditions: 0.5 uM sapphyrin
Procedure: as §1

[3] = Animal toxicology; conditions: for Animal toxicology: dose at which deaths were seen: in vivo; for Animal toxicology: highest doses that showed no deaths: numbers in parentheses
[4] = system: Lymphoma, Leukemia and Myeloma cell lines; assay: Cell death in Lymphoma, Leukemia and Myeloma cell lines (FIG. 11); type: cell-based; conditions: 1 μM
Procedure: (§2) Cytotoxicity was evaluated using Annexin-V staining and caspase activation as markers of apoptosis. Cell lines were grown in RPMI 1640 with 10% heat inactivated fetal bovine serum. Example 12 was added to cell cultures in concentrations ranging from 100 nM-5 μM.

[5] = system: Ramos cells; assay: Cell death in Ramos cell line (FIG. 13-15); type: cell-based
Procedure: as §1, §2

Structure (SMILES)	% Annexin positive cells after 24 hrs (sapphyrin dose) ([1]; 1 uM sapphyrin, listed as Ex. 1)	% Annexin positive cells after 24 hrs (sapphyrin dose) ([1]; 2.5 uM sapphyrin, listed as Ex. 1)	% Annexin positive cells after 24 hrs (sapphyrin dose) ([1]; 5 uM sapphyrin)	% Annexin positive cells after 24 hrs (sapphyrin dose) ([1]; 0.5 Um sapphyrin)	After 96 hr (GI = growth inhibition 96 hrs post treatment compared to control untreated cells) ([2]; listed as Ex. 1)	Animal toxicology: animals dead ([3]; at 26.8 uM/kg)	Animal toxicology: dose at which deaths were seen [3]	Animal toxicology: highest doses that showed no deaths [3]	% Annexin positive cells after 24 hrs (sapphyrin dose) ([1]; 1 uM sapphyrin)	% Annexin positive cells after 24 hrs (sapphyrin dose) ([1]; 2.5 uM sapphyrin)	After 96 hr (GI = growth inhibition 96 hrs post treatment compared to control untreated cells) [2]	Animal toxicology: animals dead ([3]; at 40 uM/kg)	Increase in cell death [4]	Dose response of cell death ([5]; Ramos cell line, 8 hours, FIG. 14)	Dose response of cell death ([5]; Ramos cell lines, 48 hours incubation, FIG. 13)
CCc1c(CC)c2cc3nc(cc4[nH]c(c(CC)c4CC)c4[nH]c(cc5nc(cc1[nH]2)C(CCCOC(=O)N(CCO)CCO)=C5C)c(CC)c4CC)C(C)=C3CCCOC(=O)N(CCO)CCO [Example 1]	38% and 30%	99% and 96%	sat	Back	91% and 52%	1/9 dead at	26.8 uM/kg	22.3 uM/kg							
CCc1c(CC)c2cc3nc(cc4[nH]c(c(CC)c4CC)c4[nH]c(cc5nc(cc1[nH]2)C(CCCOC(=O)NC(CO)(CO)CO)=C5C)c(CC)c4CC)C(C)=C3CCCOC(=O)NC(CO)(CO)CO [Example 2]			97%	Back			40 uM/kg	30 uM/kg	10%	41%	13%	4/6 dead			
CCc1c(CC)c2cc3nc(cc4[nH]c(c(CC)c4CC)c4[nH]c(cc5nc(cc1[nH]2)C(CCCOC(=O)NCCOCCOCCOC)=C5C)c(CC)c4CC)C(C)=C3CCCOC(=O)NCCOCCOCCOC [Example 3]			sat	10.6%					93%	sat					
CCc1c(CC)c2cc3nc(cc4[nH]c(c(CC)c4CC)c4[nH]c(cc5nc(cc1[nH]2)C(CCCO)=C5C)c(CC)c4CC)C(C)=C3CCCO [Example 12]													at least a five-fold increase in cell death	An increase in the amount of Example 12 causes an increase in cell death	An increase in the amount of Example 12 causes an increase in cell death
O=C1NC(=O)c2ccccc21 [Phthalimide]			sat	back					16%		GI-50%				
